In patent publication US9949976B2, “Kinase inhibitor and use thereof” (Sihuan Pharmaceutical Holdings Group Ltd., priority 2013, dated 2018):
Read-outs that look alike come from different tables or passages of the source.

Columns and labels:
[1] = target: CDK6/D3 (Homo sapiens, UniProt Q00534); assay: In vitro enzyme-inhibiting activity, Caliper Mobility Shift method; type: biochemical; settings: read-out: CDK enzyme-inhibiting activity IC50 CDK6/D3
Description: (§5) Measurement of activity for inhibiting CDK4/6 kinase by Caliper Mobility Shift method.
50 mL stock solution containing 1000 mM HEPES (pH 7.5), and 50 μL stock solution containing 30% Brij-35, were added to 949.95 mL ultra pure water, and the resultant mixture was mixed homogeneously.
(§6) 25 mL stock solution containing 4% Coating Reagent #3 (provided with the 12-sipper chip used in Caliper device), 50 mL stock solution containing 1000 mM HEPES (pH 7.5), 50 mL stock solution containing 0.5 M EDTA, and 0.25 mL stock solution containing 30% Brij-35, were added to 374.75 mL ultra pure water, and the resultant mixture was mixed homogeneously.
18 μL CDK6/D3 enzyme solution, and 14 μL stock solution containing 1M DTT were added to 2768 μL 1-fold CDK6 kinase buffer, and the resultant mixture was mixed homogeneously.
23 μL stock solution containing 100 mM ATP, 75 μL stock solution containing 1M MgCl2, and 75 μL FAM-tagged polypeptide 8, were added to 2827 μL 1-fold CDK6 kinase buffer, and the resultant mixture was mixed homogeneously.
(§7) DMSO solution containing 10 mM test compound was diluted with DMSO to a solution containing 50 μM test compound (which was used as a stock solution).
(§8) 1) 5 μL 5-fold test compound solution and 10 μL 2.5-fold kinase solution were added to the corresponding wells in a 384-well plate, and incubated at room temperature for 10 min.
(§9) 2) To the corresponding wells, 10 μL 2.5-fold polypeptide solution was added to start the enzymatic reaction, and incubation was performed at 28° C. for 5 h.
(§10) To the corresponding wells, 25 μL stop solution was added to stop the reaction.
(§11) The data was read by Caliper device, the inhibition rate was calculated by the following formula, and curve fitting was carried out by GraphPad5.0 software to get IC50 value. Inhibition rate=(maximal value−sample value)/(maximal value−minimal value)×100, wherein, maximal value: positive control without addition of test compound; minimal value: negative control without addition of enzyme.

[2] = target: CDK4/D3 (Homo sapiens, UniProt P11802); assay: as above; type: biochemical; settings: read-out: CDK enzyme-inhibiting activity IC50 CDK4/D3
Sequence of CDK4/D3 (P11802 whole entry): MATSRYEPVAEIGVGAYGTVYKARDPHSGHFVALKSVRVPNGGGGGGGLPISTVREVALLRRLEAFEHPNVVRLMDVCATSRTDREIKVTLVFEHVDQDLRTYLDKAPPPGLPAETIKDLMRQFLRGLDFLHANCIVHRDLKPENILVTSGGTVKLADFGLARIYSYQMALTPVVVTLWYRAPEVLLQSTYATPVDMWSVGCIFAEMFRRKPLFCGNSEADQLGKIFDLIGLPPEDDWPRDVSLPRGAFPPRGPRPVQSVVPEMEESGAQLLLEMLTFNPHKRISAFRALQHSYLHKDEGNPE
Sequence of CDK4/D3 (P30281 whole entry partner): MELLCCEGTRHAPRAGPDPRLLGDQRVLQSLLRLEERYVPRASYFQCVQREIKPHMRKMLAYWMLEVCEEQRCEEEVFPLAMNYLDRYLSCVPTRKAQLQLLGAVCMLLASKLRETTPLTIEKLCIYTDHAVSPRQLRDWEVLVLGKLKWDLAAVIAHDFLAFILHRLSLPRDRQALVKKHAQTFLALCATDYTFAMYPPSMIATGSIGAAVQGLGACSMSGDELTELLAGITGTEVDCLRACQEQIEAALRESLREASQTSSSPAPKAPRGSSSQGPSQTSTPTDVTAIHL
Description: as §5
1) Preparation of 1-Fold Buffer for CDK4 Kinase 800 μL stock solution containing 1000 mM HEPES (pH 7.5), and 40 μL stock solution containing 10% Triton X-100, were added to 39160 μL ultra pure water, and the resultant mixture was mixed homogeneously.
as §6
7 μL CDK4/D3 enzyme solution, and 9 μL stock solution containing 1M DTT were added to 1784 μL 1-fold CDK4 kinase buffer, and the resultant mixture was mixed homogeneously.
10 μL stock solution containing 100 mM ATP, 45 μL stock solution containing 1M MgCl2, and 45 μL FAM-tagged polypeptide 8, were added to 1700 μL 1-fold CDK4 kinase buffer, and the resultant mixture was mixed homogeneously.
as §7, §8, §9, §10, §11

[3] = test system: MDA-MB-435S human melanoma cell; assay: BrdU cell proliferation assay (Cell Signaling kit); type: cell-based; settings: 72 h, read-out: In vitro cell-inhibiting activity IC50 MDA-MB-435S
Description: (§1) Experimental method: cell proliferation assay was carried out by BrdU method (BrdU cell proliferation assay kit, Cell Signaling Technology Company).
(§2) Preparation of gradient dilution solutions of test compound: the stock solution containing 10 mM test compound was subjected to 4-fold stepwise dilution with DMSO to prepare solutions containing 2.5 mM, 625 μM, 156 μM, 39 μM, 9.8 μM, and 2.5 μM test compound, respectively. 2 μL DMSO-diluted compound was added to 198 μL culture medium containing 10% FBS to prepare […] test compound, wherein the maximum concentration of the test compound was 100 μM, the concentration of DMSO was 1%, and there were 7 concentration gradients.
MDA-MB-435S medium: L-15+10% FBS+0.01 mg/mL insulin
(§3) (1) Cells grown to 80% confluence (in exponential growth phase) were digested with pancreatin, and centrifuged to collect the cells. MDA-MB-435S and U87MG cells were re-suspended in FBS-free culture medium, counted, and seeded to a 96-well plate; MDA-MB-435S cells were seeded at 3000 cells/well/81 μL; U87MG cells were seeded at 4000 cells/well/81 MCF-7 cells were resuspended in culture medium containing 1% FBS, and counted and seeded to a 96-well plate, at 4000 cell/well/82 μL. The plates were placed in a cell incubator at 37° C. […]
(§4) (9) To each well, stop solution (100 μL) was added, and OD value at 450 nm was measured by ELISA instrument […]

[4] = test system: MCF-7 human breast cancer cell; assay: BrdU cell proliferation assay (Cell Signaling kit); type: cell-based; settings: MCF7, 72 h, read-out: In vitro cell-inhibiting activity IC50 MCF-7
Description: as §1, §2
MCF-7 medium: DMEM+10% FBS+0.01 mg/mL insulin
as §3, §4

[5] = test system: U87MG human glioblastoma cell; assay: BrdU cell proliferation assay (Cell Signaling kit); type: cell-based; settings: U-87 MG, 72 h, read-out: In vitro cell-inhibiting activity IC50 U87MG
Description: as §1, §2
U87MG medium: MEM+10% FBS
as §3, §4

[6] = Pharmacokinetics in nude mouse (IV and PO); type: in vivo; settings: female, BALB/c nude, plasma; for bioavailability: read-out: F (absolute bioavailability)
Description: Test animal: female nude mouse (BALB/c); control agent: 3 mice/administration route at each time point, weight: 22-25 g/mouse; Compound 1: 3 mice/administration route at each time point, weight: 22-25 g/mouse; Compound 6-1: 6 mice/administration route/test compound, weight: 18-26 g/mouse.
Control agent/Compound 1, IV administration group: before administration, 0.083, 0.25, 0.5, 1, 2, 4, 6, 8, 24, and 30 h after administration; PO administration group (10 mg/kg): before administration, 0.167, 0.5, 1, 2, 4, 6, 8, 24, and 30 h after administration.
Compound 1, PO administration group (100 mg/kg): 0.167, 0.5, 1, 2, 4, 6, 8, 24, 30, and 48 h after administration.
Compound 6-1, IV administration group (2.5 mg/kg) and PO administration group (10 mg/kg): 0.083, 0.25, 0.5, 1, 2, 4, 6, 8 and 24 h after administration; Compound 6-1, PO administration group (100 mg/kg): 0.083, 0.25, 0.5, 1, 2, 4, 6, 8, 24, 30, 48 h after administration.
Control agent/Compound 1: 300 μL whole blood was collected from intraocular canthus at each time point, and was centrifuged at 8000 r/min for 6 min in a high speed centrifuge to separate the plasma; the plasma was stored in a refrigerator at −80° C. Compound 6-1: 60 μL whole blood was collected from intraocular canthus at each time point, and was placed in an anticoagulation tube containing anticoagulant agent K2EDTA; the blood sample was centrifuged at 8000 r/min for 6 min to obtain a plasma sample.
The plasma samples of control agent and compound 1 were analyzed by precipitation of protein: to 50 μL plasma, 200 μL internal standard (acetonitrile solution containing 500 ng/mL Warfarin) was added; the resultant mixture was vortexed for 3 min at 1500 r/min, and centrifuged for 5 min at 13000 r/min; to 100 μL supernatant, 400 μL water was added; the resultant mixture was mixed homogeneously under vortexing and analyzed by LC-MS/MS.
The plasma sample of compound 6-1 was analyzed by precipitation of protein: to a suitable amount of plasma, a given volume of internal standard solution was added; the resultant mixture was vortexed and centrifuged; the supernatant was diluted by adding a given volume of water; the resultant mixture was mixed homogeneously under vortexing and analyzed by LC-MS/MS.

Sequence of CDK6/D3 (Q00534 whole entry): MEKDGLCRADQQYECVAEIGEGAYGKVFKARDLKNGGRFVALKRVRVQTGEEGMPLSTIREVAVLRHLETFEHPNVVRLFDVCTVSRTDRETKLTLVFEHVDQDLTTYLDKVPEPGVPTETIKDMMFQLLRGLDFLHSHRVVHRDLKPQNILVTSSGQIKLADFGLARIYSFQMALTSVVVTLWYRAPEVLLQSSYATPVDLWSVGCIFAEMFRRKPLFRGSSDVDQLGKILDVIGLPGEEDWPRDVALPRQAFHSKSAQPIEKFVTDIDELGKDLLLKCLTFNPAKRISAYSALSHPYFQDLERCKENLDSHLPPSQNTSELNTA
Sequence of CDK6/D3 (P30281 whole entry partner): as the sequence (P30281 whole entry partner) above

CCN1C2CCC1CN(Cc1cnc(Nc3cc(-c4cc(F)c5nc(C)n(C(C)C)c5c4)c(F)cn3)nc1)C2 [Compound 14, 5-((8-ethyl-3,8-diazabicyclo[3.2.1]octan-3-yl)methyl)-N-(5-fluoro-4-(4-fluoro-1-isopropyl-2-methyl-1H-benzo[d]imidazol-6-yl)pyridin-2-yl)pyrimidin-2-amine]
IC50 [1]: 23.1 nM | IC50 [2]: 2.6 nM

CCN1CC2CCC(C1)N2Cc1cnc(Nc2cc(-c3cc(F)c4nc(C)n(C(C)C)c4c3)c(F)cn2)nc1 [Compound 13, 5-((3-ethyl-3,8-diazabicyclo[3.2.1]octan-8-yl)methyl)-N-(5-fluoro-4-(4-fluoro-1-isopropyl-2-methyl-1H-benzo[d]imidazol-6-yl)pyridin-2-yl)pyrimidin-2-amine]
IC50 [1]: 31.3 nM | IC50 [2]: 3 nM

Cc1nc2c(F)cc(-c3cc(Nc4ncc(CN5C[C@H]6CN(C)C[C@H]6C5)cn4)ncc3F)cc2n1C(C)C [Compound 6-1, N-(5-fluoro-4-(4-fluoro-1-isopropyl-2-methyl-1H-benzo[d]imidazol-6-yl)pyridin-2-yl)-5-(((cis)-5-methylhexahydropyrrolo[3,4-c]pyrrol-2(1H)-yl)methyl)pyrimidin-2-amine]
IC50 [3]: 70 nM | IC50 [4]: 83 nM | IC50 [5]: 47 nM | AUC(0-t) ([6]; IV, 2.5 mg/kg): 985 ng·h/mL | clearance ([6]; IV, 2.5 mg/kg): 40.2 mL/min/kg | Vd ([6]; IV, 2.5 mg/kg, read-out: Vss): 12.5 L/kg | AUC(0-t) ([6]; PO, 10 mg/kg): 1410 ng·h/mL | Cmax ([6]; PO, 10 mg/kg): 300 ng/mL | Tmax ([6]; PO, 10 mg/kg): 2 h | bioavailability ([6]; PO, 10 mg/kg): 39.3% | AUC(0-t) ([6]; PO, 200 mg/kg): 90900 ng·h/mL | Cmax ([6]; PO, 200 mg/kg): 5370 ng/mL | Tmax ([6]; PO, 200 mg/kg): 2 h | bioavailability ([6]; PO, 200 mg/kg): 115%
